In patent US20250188417A1, “CARDIOMYOCYTES AND COMPOSITIONS AND METHODS FOR PRODUCING THE SAME” (President and Fellows of Harvard College, priority 2021, published 2025):

Assays:
[1] = system: iPSC-derived cardiomyocytes (CMs); experiment: Quiescence, cell cycle and TNNT2+ flow cytometry after Torin1 treatment; format: cell-based, human
Protocol: FIG. 10A provides a schematic of a differentiation protocol, with Torin1 treatment performed for 7 days starting ˜2 days after onset of beating, unless otherwise noted. FIG. 10B provides a western analysis of phospho-S6 and phospho-Akt at baseline and 30 minutes, and 2, 4, 10, 24, and 48 hours after a single treatment of iPSC-derived CMs with Torin1 (200 nM), BJRiPS-CMs. […] Torin1 treatment started on day 9, approximately 2 days after onset of CM beating, BJRiPS-CMs, n=3 per group per time point. […] DMSO, dimethylsulfoxide; IWP-4, inhibitor of Wnt production-4; RI, ROCK (Rho-associated, coiled coil containing protein kinase) inhibitor (Y-27632); RPMI, Roswell Park Memorial Institute 1640 medium.

[2] = system: BJRiPS-CMs; experiment: qPCR of sarcomere genes and ion channels after Torin1 treatment; format: cell-based, human
Protocol: FIG. 11A provides qPCR of selected sarcomere genes (MYH6, MYH7, TNNT2, TNNI3) iPSC-derived cardiomyocytes after treatment with Torin1 (10 nM, 50 nM, or 200 nM) or vehicle control (0.02% DMSO) for 7 days starting ˜2 days after onset of beating. n=3 per condition, *p<0.05, ****p<0.001 by two-way ANOVA with Tukey's multiple comparisons test, BJRiPS-CMs. FIG. 11B provides representative of western blot analysis of TNNT2 and TNNI3 after Torin1 treatment for 7 days starting ˜2 days after onset of beating, β-tubulin depicted as loading control, Gibco iPS-CMs. […] FIG. 11D provides representative image of MTF in diastole and systole, with schematic of MTF on side view in diastole and systole. […]
FIG. 13A provides qPCR of selected ion channels (KCNJ2, CACNA1c, RY2, ATP2a2, SCN5a, HCN4) of iPSC-derived cardiomyocytes after treatment with Torin1 (10 nM or 200 nM) or vehicle control (0.02% DMSO) for 7 days starting ˜2 days after onset of beating. n=3 per group, *p<0.05, ****p<0.001 by two-way ANOVA with Tukey's multiple comparisons test, BJRiPS line. FIG. 13B provides flow cytometry analysis of mean fluorescence intensity of Kir2.1 (encoded by KCNJ2) after Torin1 treatment for 7 days starting ˜2 days after onset of beating. n=3 per group, *p<0.01 by unpaired t-test, BJRiPS line. […]

[3] = system: iPSC-derived cardiomyocytes; experiment: Muscular thin film (MTF) contractility; format: cell-based, human; details: Torin1 200 nM for 7 days; muscular thin films
Protocol: (§1) FIG. 11A provides qPCR of selected sarcomere genes (MYH6, MYH7, TNNT2, TNNI3) iPSC-derived cardiomyocytes after treatment with Torin1 (10 nM, 50 nM, or 200 nM) or vehicle control (0.02% DMSO) for 7 days starting ˜2 days after onset of beating. n=3 per condition, *p<0.05, ****p<0.001 by two-way ANOVA with Tukey's multiple comparisons test, BJRiPS-CMs. FIG. 11B provides representative of western blot analysis of TNNT2 and TNNI3 after Torin1 treatment for 7 days starting ˜2 days after onset of beating, β-tubulin depicted as loading control, Gibco iPS-CMs. […] FIG. 11D provides representative image of MTF in diastole and systole, with schematic of MTF on side view in diastole and systole. FIG. 11E provides representative force versus time plot of muscular thin film (MTF) seeded with iPSC-derived cardiomyocytes treated with Torin1 (200 nM) or vehicle for 7 days starting ˜2 days after onset of beating, BJRiPS-CMs. […] FIG. 11G provides representative immunostained images showing cardiomyocytes treated with or without Torin1 (200 nM×7 days), blue=DAPI, green=alpha-actinin, yellow=F-actin, magenta=TNNT2, BJRiPS-CMs, scale bar=10 μm. […] DMSO, dimethylsulfoxide; TBP, TATA-binding protein.

[4] = system: BJRiPS-CMs; experiment: Sarcomere length by immunostaining; format: cell-based, human; details: Torin1 200 nM×7 days versus control; unpaired t-test; FIG. 11H
Protocol: as §1

[5] = system: BJRiPS-CMs; experiment: Seahorse Mito Stress Test oxygen consumption rate; format: cell-based, human; details: Torin1 200 nM×7 days; normalized to baseline
Protocol: FIG. 12A provides a profile of average oxygen consumption rate normalized to baseline versus time as evaluated by the Seahorse Mito Stress Test. Open circles=control (n=70 wells), closed squares=Torin1 (69 wells, 200 nM×7 days; BJRiPS-CMs replated into Seahorse plate for 24-48 hours prior to assay), data from two independent experiments combined. […] FIG. 12F provides qPCR of selected genes associated with fatty acid metabolism (PPARGC1a (PGC1α), CD36, SLC27A1 (FATP1), SLC27A6 (FATP6), and LPIN1) or glucose metabolism (GLUT1, GLUT4, PFK, and PYGM) of BJRiPS-CMs after treatment with Torin1 (10 nM, 50 nM, or 200 nM) or vehicle control (0.02% DMSO) for 7 days starting ˜2 days after onset of beating. *p<0.05, **p<0.01, ***p<0.001, ****p<0.0001 by two-way ANOVA with Tukey's multiple comparison's test, n=3 per group. DMSO, dimethylsulfoxide; FCCP, 2-[2-[4-(trifluoromethoxy)phenyl]hydrazinylidene]-propanedinitrile.

[6] = system: BJRiPS-CMs; experiment: Mitochondrial polarization (MitoProbe JC-1); format: cell-based, human; details: Torin1 200 nM for 7 days
[7] = system: UCSD-CMs; experiment: FluoVolt action potential profile; format: cell-based, human
Protocol: FIG. 13A provides qPCR of selected ion channels (KCNJ2, CACNA1c, RY2, ATP2a2, SCN5a, HCN4) of iPSC-derived cardiomyocytes after treatment with Torin1 (10 nM or 200 nM) or vehicle control (0.02% DMSO) for 7 days starting ˜2 days after onset of beating. n=3 per group, *p<0.05, ****p<0.001 by two-way ANOVA with Tukey's multiple comparisons test, BJRiPS line. FIG. 13B provides flow cytometry analysis of mean fluorescence intensity of Kir2.1 (encoded by KCNJ2) after Torin1 treatment for 7 days starting ˜2 days after onset of beating. n=3 per group, *p<0.01 by unpaired t-test, BJRiPS line. […] FIG. 13D provides representative images showing cell segmentation performed automatically by the CyteSeer software. Blue=Hoechst stain, Green=FluoVolt. […] CTD25 (25% duration of the calcium transient, or duration at 25% decline from maximum amplitude), CTD75 (75% duration of the calcium transient, or duration at 75% decline from maximum amplitude), T75-25 (time for voltage to decay from 75% to 25% of maximum). […] For Fluovolt data, control n=531 cells, Torin1 n=315 cells, analysis by unpaired t-test.

[8] = system: Gibco iPS-CM; experiment: Western blot of p53 after Torin1 treatment; format: cell-based, human; details: Torin1 10, 50 or 200 nM for 7 days
Protocol: (§2) FIG. 14A provides representative western blot of p53, phospho-53, p21 (CDKN1a), GATA4, NKX2.5, and β-tubulin from Gibco iPS-CM lysates treated with 0 (DMSO), 10, 50, or 200 nM Torin1 for 7 days starting ˜2 days after onset of beating. Cells harvested on final day of treatment. FIG. 14B provides cell cycle analysis showing percentage of TNNT2+ BJRiPS-CMs in G0, G1 or S/G2/M phases after treatment with vehicle (DMSO, dimethylsulfoxide), pifithrin-α (10 μM) for 1 week, Torin1 (200 nM) for 7 days or simultaneous treatment with pifithrin-α (10 μM) and Torin1 (200 nM) for 7 days starting ˜2 days after onset of beating. n=3 per group, *p<0.05, **p<0.01, ***p<0.001, ****p<0.0001 by two-way ANOVA with Tukey's multiple comparisons test. FIG. 14C provides representative western blot of p53, TNNI3, p21, and β-tubulin from BJRiPS-derived cardiomyocyte lysates treated with control (DMSO), Torin1 (200 nM), pifithrin-α (10 PM) or Torin1 (200 nM)+pifithrin-α (10 μM) for 7 days beginning ˜2 days after onset of beating. Cells harvested on final day of treatment.

[9] = system: PSC-CMs; details: inhibition of mTOR signaling during late differentiation; previously suggested; cited from earlier work
[10] = system: BJRiPS-CMs; experiment: Western blot and densitometry (MDM2, p53, TNNI3) and cell cycle analysis of BJRiPS-derived cardiomyocytes; format: cell-based, human; details: pifithrin-α 10 μM with Torin1 200 nM for 7 days
Protocol: FIG. 6A provides a schematic showing proposed mechanism of cardiomyocyte maturation. T3, triiodothyronine. […] FIG. 6C provides representative Western blot of MDM2, p53, TNNI3, and β-tubulin from BJRiPS-derived cardiomyocyte lysates treated with control (DMSO), nutlin-3a Å˜24 hours (10 μmol/L), Torin1 Å˜7 days (200 nmol/L), or Torin1 Å˜7 days (200 nmol/L)+nutlin-3a (10 μmol/L) for 24 hours beginning ≈2 days after onset of beating (nutlin-3a was only administered during the first 24 hours of Torin1 treatment). Cells harvested on final day of treatment, BJRiPS-CMs. […] DMSO indicates dimethylsulfoxide; mTOR, mechanistic target of rapamycin; and TNNT2+ BJRiPS-CMs, troponin T2, cardiac type-positive BJ fibroblast-derived RNA-induced pluripotent stem cell-derived cardiomyocytes.
as §2

SMILES | cellular quiescence ([1]; Torin1 for 7 days starting about 2 days after onset of beating) | percentage of TNNT2+ CMs out of live cell population ([1]; flow cytometry, Gibco iPS-CMs, one-way ANOVA, FIG. 10D) | expression selected ion channels ([2]; Torin1 10 nM or 200 nM for 7 days) | expression of sarcomere genes (MYH6, MYH7, TNNT2, TNNI3) ([2]; Torin1 10, 50 or 200 nM for 7 days) | contractility [3] | sarcomere length [4] | oxygen consumption rate [5] | mitochondrial polarization [6] | peak rise time of the action potential profile ([7]; FluoVolt, FIG. 13F) | downstroke velocity of the action potential profile ([7]; FluoVolt, FIG. 13G) | CTD25 time ([7]; FluoVolt, versus control, unpaired t-test, FIG. 13H) | plateau phase of the action potential profile ([7]; representative profile versus control, FIG. 13E) | p53 expression [8] | cellular quiescence [9] | maturation of cardiomyocytes [9] | effects of Torin1 (cell cycle, TNNI3) [10]
CCC(=O)N1CCN(c2ccc(-n3c(=O)ccc4cnc5ccc(-c6cnc7ccccc7c6)cc5c43)cc2C(F)(F)F)CC1 [Torin1] | increases | n.s. | increases | increases | enhances | n.s | increases | increases | increases | increases | n.s. | more prolonged | increases | induces | enhances | –
Cc1ccc(C(=O)Cn2c3c(sc2=N)CCCC3)cc1 [pifithrin-α] | – | – | – | – | – | – | – | – | – | – | – | – | – | – | – | inhibited
